Measured values from patent US11066413B2, “Aminopyrimidine five-membered heterocyclic compound, and intermediate, preparation method, pharmaceutical composition and application thereof” (GUANGZHOU MAXINOVEL PHARMACEUTICALS CO., LTD., priority 2017, dated 2021).

biological target: T1, hA2A receptor (Homo sapiens (Human), UniProt P29274); assay: binding affinity IC50 to hA2A receptor (SPA beads, Effect Embodiment 1); conditions: A2A receptor membrane, 1 hour at room temperature, read-out: IC50 values of compound 1 binding affinity to hA2A receptor
Method: evaluation experiment of the binding affinity IC50 of the compound 1 to hA2A receptor.
Experimental procedure • 1. Preparation of the test compound. • 1) The compound mother plate (1500 rpm, 1 minute) was centrifuged; • 2) 50 Nanoliters was transferred from the compound mother plate to the reaction plate by a nano-sound sonic pipetting system; • 2. Preparation of buffer medium membrane, preparation of beads suspension; • 1) DMSO was added to the assay buffer, final concentration of DMSO was 1%; • 2) homogenized A2A receptor membrane was connected to a 1 mL syringe five times by a No. 26 needle (to avoid air bubbles); • 3) the buffer, A2A receptor membrane and ADA were mixed, and was let stand for 15 minutes at room temperature; • 4) SPA beads were added and mixed well with A2A receptor membrane; • 3. Preparation of radioisotope buffer • 4. Mix reaction reagents • 1) 20 μL of radioactive buffer solution was added into the reaction plate; • 2) 30 μL of membrane and […] suspension was added into the reaction plate; • 3) the plate was sealed and incubated for 1 hour at room temperature with vigorous mixing and shaking; • 4) the beads were precipitated for 4-5 minutes before reading. • 5) Reading with Microbeta; • 5. Data processing

T1 sequence (P29274 whole entry): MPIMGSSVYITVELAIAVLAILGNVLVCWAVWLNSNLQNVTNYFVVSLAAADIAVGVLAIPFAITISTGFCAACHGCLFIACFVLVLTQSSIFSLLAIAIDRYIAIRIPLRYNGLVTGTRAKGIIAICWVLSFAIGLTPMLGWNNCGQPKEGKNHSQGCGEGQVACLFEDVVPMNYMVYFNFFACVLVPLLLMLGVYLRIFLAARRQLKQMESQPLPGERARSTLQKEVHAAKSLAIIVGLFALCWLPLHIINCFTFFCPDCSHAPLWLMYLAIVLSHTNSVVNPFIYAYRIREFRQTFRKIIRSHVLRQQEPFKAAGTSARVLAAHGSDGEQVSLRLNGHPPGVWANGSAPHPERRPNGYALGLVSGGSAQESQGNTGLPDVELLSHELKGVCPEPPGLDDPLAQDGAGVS

IC50	SMILES
0.079 µM	Nc1nc(-c2ccco2)c2c(n1)C(Cc1ccccc1F)OC2=O (stereo not shown) [Compound 1, 2-amino-7-(2-fluorobenzyl)-4-(furan-2-yl)-5H,7H-furo[3,4-d]pyrimidin-5-one]

biological target: T1, hA2A receptor; assay: binding affinity IC50 to hA2A receptor ([3H]-CGS 21680 filter binding, Effect Embodiment 2); conditions: A2A membrane, [3H]-CGS 21680 (final 25 nM), 90 minutes at 25° C.
Method: Evaluation experiment of the binding affinity IC50 of the compounds 1-61 to hA2A receptor
40 uL of ULTIMA GOLD scintillation fluid was added to each well and the CPM (count per minute) value was read by TopCount.

IC50	SMILES
0.0147 µM	Nc1nc(-c2ccco2)c2c(n1)C(Cc1ccccc1F)OC2=O (stereo not shown) [Compound 1, 2-amino-7-(2-fluorobenzyl)-4-(furan-2-yl)-5H,7H-furo[3,4-d]pyrimidin-5-one]
0.0164 µM	CN1C(=O)c2c(-c3ccco3)nc(N)nc2C1Cc1ccc(F)cc1F (stereo not shown) [Compound 47, 2-amino-7-((2,4-difluorophenyl)methyl)-4-(furan-2-yl)-6-methyl-5H,6H,7H-pyrrolo[3,4-d]pyrimidin-5-one]
0.0132 µM	Cc1ccc(-c2nc(N)nc3c2C(=O)N(C)C3=Cc2ccc(F)cc2F)o1 [Compound 48, 2-amino-7-((2,4-difluorophenyl)methylene)-4-(5-methylfuran-2-yl)-6-methyl-5H,6H,7H-pyrrolo[3,4-d]pyrimidin-5-one]
0.0321 µM	Cc1ccc(-c2nc(N)nc3c2C(=O)N(C)C3Cc2ccc(F)cc2F)o1 (stereo not shown) [Compound 49, 2-amino-7-((2,4-difluorophenyl)methyl)-4-(5-methylfuran-2-yl)-6-methyl-5H,6H,7H-pyrrolo[3,4-d]pyrimidin-5-one]
0.0073 µM	Cc1ccc(-c2nc(N)nc3c2C(=O)N(C)C3=Cc2ccccc2F)o1 [Compound 50, 2-amino-7-((2-fluorophenyl)methylene)-4-(5-methylfuran-2-yl)-6-methyl-5H,6H,7H-pyrrolo[3,4-d]pyrimidin-5-one]
0.0047 µM	Cc1ccc(-c2nc(N)nc3c2C(=O)N(C)/C3=C\c2ccccc2C(F)(F)F)o1 [Compound 51, 2-amino-7-((2-(trifluoromethyl)phenyl)methylene)-4-(5-methylfuran-2-yl)-6-methyl-5H,6H,7H-pyrrolo[3,4-d]pyrimidin-5-one]
0.0036 µM	Cc1ccc(-c2nc(N)nc3c2C(=O)N(C)C3=Cc2ccccc2OC(F)(F)F)o1 [Compound 52, 2-amino-7-((2-(trifluoromethoxyl)phenyl)methylene)-4-(5-methylfuran-2-yl)-6-methyl-5H,6H,7H-pyrrolo[3,4-d]pyrimidin-5-one]
0.0562 µM	Cc1ccc(-c2nc(N)nc3c2C(=O)N(C)C3Cc2ccccc2OC(F)(F)F)o1 (stereo not shown) [Compound 53, 2-amino-7-((2-(trifluoromethoxyl)phenyl)methyl)-4-(5-methylfuran-2-yl)-6-methyl-5H,6H,7H-pyrrolo[3,4-d]pyrimidin-5-one]
0.0347 µM	Cc1ccc(-c2nc(N)nc3c2C(=O)N(C)C3Cc2ccccc2C(F)(F)F)o1 (stereo not shown) [Compound 54, 2-amino-7-((2-(trifluoromethyl)phenyl)methyl)-4-(5-methylfuran-2-yl)-6-methyl-5H,6H,7H-pyrrolo[3,4-d]pyrimidin-5-one]
0.0293 µM	Cc1ccc(-c2nc(N)nc3c2C(=O)N(C)C3Cc2ccccc2F)o1 (stereo not shown) [Compound 55, 2-amino-7-((2-fluorophenyl)methyl)-4-(5-methylfuran-2-yl)-6-methyl-5H,6H,7H-pyrrolo[3,4-d]pyrimidin-5-one]
0.0034 µM	Cc1ccc(-c2nc(N)nc3c2C(=O)N(C)C3=Cc2ccc(F)cc2C(F)(F)F)o1 [Compound 56, 2-amino-7-((2-(trifluoromethyl)-4-fluorophenyl)methylene)-4-(5-methylfuran-2-yl)-6-methyl-5H,6H,7H-pyrrolo[3,4-d]pyrimidin-5-one]
0.152 µM	Cc1ccc(-c2nc(N)nc3c2C(=O)N(C)C3Cc2ccc(F)cc2C(F)(F)F)o1 (stereo not shown) [Compound 57, 2-amino-7-((2-(trifluoromethyl)-4-fluorophenyl)methyl)-4-(5-methylfuran-2-yl)-6-methyl-5H,6H,7H-pyrrolo[3,4-d]pyrimidin-5-one]
0.179 µM	Cc1ccc(-c2nc(N)nc3c2C(=O)N(C)C3Cc2ccncc2)o1 (stereo not shown) [Compound 59, 2-amino-6-methyl-4-(5-methylfuran-2-yl)-7-(pyridin-4-ylmethyl)-6,7-dihydro-5-carbonyl-5H-pyrrolo[3,4-d]pyrimidine]
0.213 µM	Cc1ccc(-c2nc(N)nc3c2n(C)c(=O)n3-c2ccccc2C(F)(F)F)o1 [Compound 61, 2-amino-7-methyl-6-(5-methylfuran-2-yl)-9-(2-(trifluoromethyl)phenyl)-8(9H)-carbonyl-7H-purine]

SMILES	IC50
Cc1ccc(-c2nc(N)nc3c2C(=O)N(C)C3Cc2cc[n+]([O-])cc2)o1 (stereo not shown) [Compound 58, 4-((2-amino-6-methyl-4-(5-methylfuran-2-yl)-5-carbonyl-5H-pyrrolo[3,4-d]pyrimidin-7(6H)-ene)methyl)-N-oxide pyridine]	0.021 µM
